According to patent US20250206747A1, “COELENTERAZINE ANALOGUES” (priority 2023, published 2025):

Target: NANOLUC® luciferase (Oplophorus gracilirostris, UniProt Q9GV45, A31E/A60N/A81I/F95D/I117V/K70R/L54V/L99Q/M102K/N193R/P142E/Q151K/Q38R/Q45L/V71I/Y165I)
Assay: Michaelis-Menten analysis of relative luminescence produced by NANOLUC luciferase at various concentrations of coelenterazine analogues
Assay type: biochemical
Conditions: 0.01 nM NANOLUC luciferase

NANOLUC® luciferase, sequence (Q9GV45 other isoform, or with tags, fused parts or gaps with the stated changes): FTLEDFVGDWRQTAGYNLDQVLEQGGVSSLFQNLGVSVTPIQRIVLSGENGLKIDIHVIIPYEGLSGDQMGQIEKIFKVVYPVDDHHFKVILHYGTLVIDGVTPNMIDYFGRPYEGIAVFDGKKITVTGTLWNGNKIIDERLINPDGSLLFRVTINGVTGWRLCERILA

Which Km (Table 2) does the source give for O=c1c(Cc2ccco2)nc2c(-c3cnnc(Cl)c3)[nH]c(-c3cccc(F)c3F)cn1-2 [Compound 10427, 8-(6-chloropyridazin-4-yl)-6-(2,3-difluorophenyl)-2-(furan-2-ylmethyl)imidazo[1,2-a]pyrazin-3(7H)-one] here?
The Km was 160 nM.

How did the Km (Table 1) turn out when O=c1c(Cc2ccco2)nc2c(-c3cnnc(Cl)c3)[nH]c(-c3cccc(F)c3)cn1-2 [Compound 10299] was run?
Its Km is 150 nM.

For COc1cccc(-c2cn3c(=O)c(Cc4ccco4)nc-3c(-c3cnnc(Cl)c3)[nH]2)c1 [Compound 10300], which Km (Table 1) is on record?
The Km was 270 nM.
